Consider three compounds from patent US9695155B2, “Herbicidal substituted pyrimidinyloxy benzene compounds” (E. I. DU PONT DE NEMOURS AND COMPANY, priority 2013, dated 2017).

Experiment in all cases: Test E postemergence
For one assay, the system named is waterhemp. The assay is classed as in vivo, Amaranthus rudis. From the text: (§1) Seeds of plant species selected from corn (Zea mays), soybean (Glycine max), velvetleaf (Abutilon theophrasti), lambsquarters (Chenopodium album), wild poinsettia (Euphorbia heterophylla), palmer pigweed (Amaranthus palmeri), waterhemp (common waterhemp, Amaranthus rudis), surinam grass (Brachiaria decumbens), large (Lg) crabgrass (Digitaria sanguinalis), Brazilian crabgrass (Digitaria horizontalis), fall panicum (Panicum dichotomiflorum), giant foxtail (Setaria faberii), green foxtail (Setaria viridis), goosegrass (Eleusine indica), johnsongrass (Sorghum halepense), ragweed (common ragweed, Ambrosia elatior), barnyardgrass (Echinochloa crus-galli), sandbur (southern sandbur, Cenchrus echinatus), arrowleaf sida (Sida rhombifolia), Italian ryegrass (Lolium multiflorum), dayflower (Virginia (VA) dayflower, Commelina virginica), field bindweed (Convolvulus arvensis), morningglory (Ipomoea coccinea), nightshade (eastern black nightshade, Solanum ptycanthum), kochia (Kochia scoparia), yellow nutsedge (Cyperus esculentus), cocklebur (common cocklebur, Xanthium strumarium), smartweed (ladysthumb smartweed, and hairy beggarticks (Bidens pilosa), were planted into a silt loam soil and treated preemergence with test chemicals formulated in a non-phytotoxic solvent mixture which included a surfactant.
(§2) At the same time, plants from these crop and weed species and also horseweed (Canada horseweed, Conyza canadensis), waterhemp_RES1, (ALS & Triazine resistant common waterhemp, Amaranthus rudis), and waterhemp_RES2, (ALS & HPPD resistant common waterhemp, Amaranthus rudis) were planted in pots containing Redi-Earth® planting medium (Scotts Company, 14111 Scottslawn Road, Marysville, Ohio 43041) comprising spaghnum peat moss, vermiculite, wetting agent and starter nutrients were treated with postemergence applications of test chemicals formulated in the same manner. Plants ranged in height from 2 to 18 cm for postemergence treatments (1- to 4-leaf stage). Treated plants and controls were maintained in a greenhouse for 14 to 21 days, after which time all species were compared to controls and visually evaluated. Plant response ratings, summarized in Table E, are based on a scale of 0 to 100 where 0 is no effect and 100 is complete control. A dash (-) response means no test result.

Assay [1] has as its system waterhemp_RES2 (ALS & HPPD resistant common waterhemp). In kind it is in vivo, Amaranthus rudis.
Source text: as §1, §2

A further assay has as its system wild poinsettia. The assay is classed as in vivo, Euphorbia heterophylla.
Source text: as §1, §2

[2] abbreviates: Postemergence, 31 g ai/ha, scale 0 to 100.
[3] abbreviates: Postemergence, 62 g ai/ha, scale 0 to 100.
The mark [4] stands for this setting: Postemergence, 125 g ai/ha, scale 0 to 100.
Setting [5] is: Postemergence, 250 g ai/ha, scale 0 to 100.
The mark [6] stands for this setting: postemergence, 16 g ai/ha, scale 0 to 100, 0 no effect, 100 complete control.
Setting [7] is: postemergence, 8 g ai/ha, scale 0 to 100, 0 no effect, 100 complete control.

Structures are written as SMILES.

In the case of `Fc1cnc(Oc2ccccc2-n2cc(Br)cn2)nc1` [Compound 10, 2-[2-(4-bromo-1H-pyrazol-1-yl)phenoxy]-5-fluoropyrimidine], the pest or weed control at 31 g/ha in the assay on waterhemp (Amaranthus tuberculatus, post-emergence, Postemergence, 31 g ai/ha, scale 0 to 100, read-out: Plant response rating, Waterhemp) amounted to 80%; in assay [1] (Amaranthus tuberculatus, post-emergence, Postemergence, 31 g ai/ha, scale 0 to 100, read-out: Plant response rating, Waterhemp_RES2) it was 60%; in the assay with wild poinsettia (Euphorbia heterophylla, post-emergence, Postemergence, 31 g ai/ha, scale 0 to 100, read-out: Plant response rating, Poinsettia, Wild), 20%. The pest or weed control at 62 g/ha in the assay on waterhemp (Amaranthus tuberculatus, post-emergence, Postemergence, 62 g ai/ha, scale 0 to 100, read-out: Plant response rating, Waterhemp) is 85%; in assay [1] (Amaranthus tuberculatus, post-emergence, Postemergence, 62 g ai/ha, scale 0 to 100, read-out: Plant response rating, Waterhemp_RES2) it was 75%; in the assay with wild poinsettia (Euphorbia heterophylla, post-emergence, Postemergence, 62 g ai/ha, scale 0 to 100, read-out: Plant response rating, Poinsettia, Wild), 30%. In addition, the pest or weed control at 125 g/ha was 95% in the assay with waterhemp (Amaranthus tuberculatus, post-emergence, Postemergence, 125 g ai/ha, scale 0 to 100, read-out: Plant response rating, Waterhemp); 80% in assay [1] (Amaranthus tuberculatus, post-emergence, Postemergence, 125 g ai/ha, scale 0 to 100, read-out: Plant response rating, Waterhemp_RES2); 30% in the assay with wild poinsettia (Euphorbia heterophylla, post-emergence, Postemergence, 125 g ai/ha, scale 0 to 100, read-out: Plant response rating, Poinsettia, Wild). For the same compound, the pest or weed control at 250 g/ha in the assay on waterhemp (Amaranthus tuberculatus, post-emergence, Postemergence, 250 g ai/ha, scale 0 to 100, read-out: Plant response rating, Waterhemp) stood at 95%; in assay [1] (Amaranthus tuberculatus, post-emergence, Postemergence, 250 g ai/ha, scale 0 to 100, read-out: Plant response rating, Waterhemp_RES2) it was 90%; with wild poinsettia (Euphorbia heterophylla, post-emergence, Postemergence, 250 g ai/ha, scale 0 to 100, read-out: Plant response rating, Poinsettia, Wild), 60%. In addition, the pest or weed control at 16 g/ha came to 50% in assay [1] (Amaranthus tuberculatus, post-emergence, postemergence, 16 g ai/ha, scale 0 to 100, 0 no effect, 100 complete control, read-out: Plant response rating, Waterhemp_RES2) and 5% in the assay on wild poinsettia (Euphorbia heterophylla, post-emergence, postemergence, 16 g ai/ha, scale 0 to 100, 0 no effect, 100 complete control, read-out: Plant response rating, Poinsettia, Wild).

As for `FC(F)(F)c1cnn(-c2ccccc2Oc2ncc(Cl)cn2)c1` [Compound 16], the “Plant response rating, Waterhemp” value worked out at 60 in the assay with waterhemp (setting [2]); 85 in the assay with waterhemp (setting [3]); 90 in the assay with waterhemp (setting [4]); 90 in the assay with waterhemp (setting [5]); 60 with waterhemp (setting [6]). The “Plant response rating, Waterhemp_RES2” value in assay [1] (setting [2]) amounted to 50; in assay [1] (setting [3]) it was 60; in assay [1] (setting [4]) it was 70; in assay [1] (setting [5]) it was 85; in assay [1] (setting [6]), 25. The “Plant response rating, Poinsettia, Wild” value was 60 in the assay with wild poinsettia (setting [2]); 60 with wild poinsettia (setting [3]); 70 in the assay on wild poinsettia (setting [4]); 80 in the assay with wild poinsettia (setting [5]); 50 with wild poinsettia (setting [6]).

Consider `Clc1cnc(Oc2cccc(Br)c2-n2cc(Br)cn2)nc1` [Compound 65], for which the “Plant response rating, Waterhemp” value is reported as 70 in the assay with waterhemp (setting [2]); 75 with waterhemp (setting [3]); 95 in the assay on waterhemp (setting [4]); 60 with waterhemp (setting [7]); 50 in the assay on waterhemp (setting [6]). Further, the “Plant response rating, Waterhemp_RES2” value was found to be 90 in assay [1] (setting [2]), 95 in assay [1] (setting [3]), 98 in assay [1] (setting [4]) and 80 in assay [1] (setting [6]). The “Plant response rating, Poinsettia, Wild” value was found to be 20 with wild poinsettia (setting [2]); 20 in the assay on wild poinsettia (setting [3]); 40 with wild poinsettia (setting [4]); 15 in the assay with wild poinsettia (setting [7]); 20 in the assay with wild poinsettia (setting [6]).
